In patent US20260274892A1, “MACROCYCLIC BROAD SPECTRUM ANTIBIOTICS” (RQx Pharmaceuticals, Inc., priority 2017, published 2026):

System: Escherichia coli ATCC 25922
Assay: Minimum inhibitory concentration (MIC), CLSI broth micro-dilution, E. coli
Assay type: cell-based
Conditions: Escherichia coli
In short: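 Antibacterial potency is measured as MIC by the CLSI broth dilution method. Bacteria at OD600 0.0005 in Tween-80-supplemented cation-adjusted Mueller Hinton broth face ten twofold compound dilutions for 22 h at 35° C.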

[1] = ATCC25922, 22 h, Table 7, cation adjusted Mueller Hinton Broth + 0.002% Tween-80, 35° C.
[2] = ATCC25922, Table 6, cation adjusted Mueller Hinton Broth + 0.002% Tween-80, 35° C., 22 hours
[3] = ATCC25922, 22 h, Table 6, cation adjusted Mueller Hinton Broth + 0.002% Tween-80, 35° C.

| MIC [1] [µM] | Compound | further results |
| --- | --- | --- |
|  | Cc1nc(-c2ccc(C(C)(C)C)cc2)nc(C)c1C(=O)N[C@@H](CCN)C(=O)N(C)[C@@H]1C(=O)N[C@@H](C)C(=O)N[C@H](C(=O)NCC#N)Cc2ccc(OCCN)c(c2)-c2cc1cc(NC(N)=O)c2OCCN (racemic) [Compound 622, rac-(8S,11S,14S)-3,18-bis(2-aminoethoxy)-N-(cyanomethyl)-11-methyl-14-[methyl-[rac-(2S)-4-amino-2-[[2-(4-tert-butylphenyl)-4,6-dimethyl-pyrimidine-5-carbonyl]amino]butanoyl]amino]-10,13-dioxo-17-ureido-9,12-diazatricyclo[13.3.1.12,6]icosa-1(18),2(20),3,5,15(19),16-hexaene-8-carboxamide] | MIC (ATCC25922, Table 7, cation adjusted Mueller Hinton Broth + 0.002% Tween-80, 35° C., 22 hours): 0.5 µM |
| 1.5 | COc1c(OC[C@H](O)CN)cc2cc1-c1cc(cc(OC[C@H](O)CN)c1OC)[C@H](N(C)C(=O)[C@H](CNS(N)(=O)=O)NC(=O)c1c(C)nc(-c3ccc(C(C)(C)C)cc3)nc1C)C(=O)N[C@@H](C)C(=O)N[C@H](C(=O)NCC#N)C2 (racemic) [Compound 593, rac-(8S,11S,14S)-N-(cyanomethyl)-3,18-dimethoxy-11-methyl-14-[methyl-[rac-(2S)-2-[[2-(4-tert-butylphenyl)-4,6-dimethyl-pyrimidine-5-carbonyl]amino]-3-(sulfamoylamino)propanoyl]amino]-10,13-dioxo-4,17-bis[rac-(2R)-3-amino-2-hydroxy-propoxy]-9,12-diazatricyclo[13.3.1.12,6]icosa-1(18),2(20),3,5,15(19),16-hexaene-8-carboxamide] |  |
|  | Cc1c(C(=O)N[C@@H](CCN)C(=O)N(C)[C@@H]2C(=O)N[C@@H](C)C(=O)N[C@H](C(=O)NCC#N)Cc3ccc(OCCN)c(c3)-c3cc2ccc3OCCN)cnn(-c2ccc(C(C)(C)C)cc2)c1=O (racemic) [Compound 387, rac-(8S,11S,14S)-3,18-bis(2-aminoethoxy)-N-(cyanomethyl)-11-methyl-14-[methyl-[rac-(2S)-4-amino-2-[[1-(4-tert-butylphenyl)-5-methyl-6-oxo-pyridazine-4-carbonyl]amino]butanoyl]amino]-10,13-dioxo-9,12-diazatricyclo[13.3.1.12,6]icosa-1(18),2(20),3,5,15(19),16-hexaene-8-carboxamide] | MIC [2]: 8 µM |
|  | Cc1nc(-c2ccc(N3C[C@H](C)C[C@H](C)C3)cc2)nc(C)c1C(=O)N[C@@H](CCN)C(=O)N(C)[C@@H]1C(=O)N[C@@H](C)C(=O)N[C@H](C(=O)NCC#N)Cc2ccc(OCCN)c(c2)-c2cc1ccc2OCCN (racemic) [Compound 327, rac-(8S,11S,14S)-3,18-bis(2-aminoethoxy)-N-(cyanomethyl)-11-methyl-14-[methyl-[rac-(2S)-4-amino-2-[[4,6-dimethyl-2-[4-[rac (3S,5R)-3,5-dimethyl-1-piperidyl]phenyl]pyrimidine-5-carbonyl]amino]butanoyl]amino]-10,13-dioxo-9,12-diazatricyclo[13.3.1.12,6]icosa-1(18),2(20),3,5,15(19),16-hexaene-8-carboxamide] | MIC [3]: 0.13 µM |
|  | Cc1nc(-c2ccc(C(C)(C)C)cc2)nc(C)c1C(=O)N[C@H](COC(C)(C)C)C(=O)N[C@@H](CCN)C(=O)N(C)[C@@H]1C(=O)N[C@@H](C)C(=O)N[C@H](C(=O)NCC#N)Cc2ccc(OCCN)c(c2)-c2cc1ccc2OCCN (racemic) [Compound 468, rac-(8S,11S,14S)-3,18-bis(2-aminoethoxy)-N-(cyanomethyl)-11-methyl-14-[methyl-[rac-(2S)-4-amino-2-[[rac-(2R)-3-tert-butoxy-2-[[2-(4-tert-butylphenyl)-4,6-dimethyl-pyrimidine-5-carbonyl]amino]propanoyl]amino]butanoyl]amino]-10,13-dioxo-9,12-diazatricyclo[13.3.1.12,6]icosa-1(18),2(20),3,5,15(19),16-hexaene-8-carboxamide] | MIC [2]: 1 µM |
| 0.75 | Cc1nc(-c2ccc(C(C)(C)C)cc2)nc(C)c1C(=O)N[C@@H](CCN)C(=O)N(C)[C@@H]1C(=O)N[C@@H](C)C(=O)N[C@H](C(=O)NCC#N)Cc2ccc(OC3CNC3)c(c2)-c2cc1ccc2O (racemic) [Compound 605, rac-(8S,11S,14S)-3-(azetidin-3-yloxy)-N-(cyanomethyl)-18-hydroxy-11-methyl-14-[methyl-[rac-(2S)-4-amino-2-[[2-(4-tert-butylphenyl)-4,6-dimethyl-pyrimidine-5-carbonyl]amino]butanoyl]amino]-10,13-dioxo-9,12-diazatricyclo[13.3.1.12,6]icosa-1(18),2(20),3,5,15(19),16-hexaene-8-carboxamide] |  |
| 0.5 | Cc1nc(-c2ccc(C(C)(C)C)cc2)nc(C)c1C(=O)N[C@@H](CNS(N)(=O)=O)C(=O)N(C)[C@@H]1C(=O)N[C@@H](C)C(=O)N[C@H](C(=O)NCC#N)Cc2ccc(OCCN)c(c2)-c2cc1cc(OCCN)c2O (racemic) [Compound 584, rac-(8S,11S,14S)-3,17-bis(2-aminoethoxy)-N-(cyanomethyl)-18-hydroxy-11-methyl-14-[methyl-[rac-(2S)-2-[[2-(4-tert-butylphenyl)-4,6-dimethyl-pyrimidine-5-carbonyl]amino]-3-(sulfamoylamino)propanoyl]amino]-10,13-dioxo-9,12-diazatricyclo[13.3.1.12,6]icosa-1(18),2(20),3,5,15(19),16-hexaene-8-carboxamide] |  |
| 0.5 | Cc1nc(-c2ccc(OC3CCCCC3)cc2)nc(C)c1C(=O)N[C@@H](CNS(N)(=O)=O)C(=O)N(C)[C@@H]1C(=O)N[C@@H](C)C(=O)N[C@H](C(=O)NCC#N)Cc2ccc(OCCCN)c(c2)-c2cc1ccc2OCCCN (racemic) [Compound 576, rac-(8S,11S,14S)-3,18-bis(3-aminopropoxy)-N-(cyanomethyl)-11-methyl-14-[methyl-[rac-(2S)-2-[[2-[4-(cyclohexoxy)phenyl]-4,6-dimethyl-pyrimidine-5-carbonyl]amino]-3-(sulfamoylamino)propanoyl]amino]-10,13-dioxo-9,12-diazatricyclo[13.3.1.12,6]icosa-1(18),2(20),3,5,15(19),16-hexaene-8-carboxamide] |  |
|  | Cc1nc(-c2ccc(OCCC(C)(C)C)cc2)nc(N)c1C(=O)N[C@@H](CCN)C(=O)N(C)[C@@H]1C(=O)N[C@@H](C)C(=O)N[C@H](C(=O)NCC#N)Cc2ccc(OCCCN)c(c2)-c2cc1ccc2OCCCN (racemic) [Compound 436, rac-(8S,11S,14S)-3,18-bis(3-aminopropoxy)-N-(cyanomethyl)-11-methyl-14-[methyl-[rac-(2S)-4-amino-2-[[4-amino-2-[4-(3,3-dimethylbutoxy)phenyl]-6-methyl-pyrimidine-5-carbonyl]amino]butanoyl]amino]-10,13-dioxo-9,12-diazatricyclo[13.3.1.12,6]icosa-1(18),2(20),3,5,15(19),16-hexaene-8-carboxamide] | MIC [3]: 0.063 µM |
| 0.75 | Cc1nc(-c2ccc(C(C)(C)C)cc2)nc(C)c1C(=O)N[C@@H](CCN)C(=O)N(C)[C@@H]1C(=O)N[C@@H](C)C(=O)N[C@H](C(=O)NCC#N)Cc2cc(OCCN)c(O)c(c2)-c2cc1ccc2O (racemic) [Compound 561, (4S,7S,10S)-10-((S)-4-amino-2-(2-(4-(tert-butyl)phenyl)-4,6-dimethylpyrimidine-5-carboxamido)-N-methylbutanamido)-25-(2-aminoethoxy)-N-(cyanomethyl)-16,26-dihydroxy-7-methyl-6,9-dioxo-5,8-diaza-1,2(1,3)-dibenzenacyclodecaphane-4-carboxamide] |  |
| 0.75 | Cc1nc(-c2ccc(C(C)(C)C)cc2)nc(C)c1C(=O)N[C@@H](CCN)C(=O)N(C)[C@@H]1C(=O)N[C@@H](C)C(=O)N[C@H](C(=O)NCC#N)Cc2ccc(O)c(c2)-c2cc1ccc2OC1CNC1 (racemic) [Compound 604, rac-(8S,11S,14S)-18-(azetidin-3-yloxy)-N-(cyanomethyl)-3-hydroxy-11-methyl-14-[methyl-[rac-(2S)-4-amino-2-[[2-(4-tert-butylphenyl)-4,6-dimethyl-pyrimidine-5-carbonyl]amino]butanoyl]amino]-10,13-dioxo-9,12-diazatricyclo[13.3.1.12,6]icosa-1(18),2(20),3,5,15(19),16-hexaene-8-carboxamide] |  |
|  | C[C@@H]1NC(=O)[C@@H](N(C)C(=O)[C@H](CCN)NC(=O)c2c(N)cc(-c3ccc(C(C)(C)C)cc3)nc2Cl)c2ccc(OCCN)c(c2)-c2cc(ccc2OCCN)C[C@@H](C(=O)NCC#N)NC1=O (racemic) [Compound 554, rac-(8S,11S,14S)-3,18-bis(2-aminoethoxy)-N-(cyanomethyl)-11-methyl-14-[methyl-[rac-(2S)-4-amino-2-[[4-amino-6-(4-tert-butylphenyl)-2-chloro-pyridine-3-carbonyl]amino]butanoyl]amino]-10,13-dioxo-9,12-diazatricyclo[13.3.1.12,6]icosa-1(18),2(20),3,5,15(19),16-hexaene-8-carboxamide] | MIC [3]: 0.094 µM |

| Compound | MIC [1] [µM] | further results |
| --- | --- | --- |
| CCCCCOc1ccc(-c2nc(C)c(C(=O)N[C@@H](CCN)C(=O)N(C)[C@@H]3C(=O)N[C@@H](C)C(=O)N[C@H](C(=O)NCC#N)Cc4ccc(O)c(c4)-c4cc3ccc4OCCCN)c(C)n2)cc1 (racemic) [Compound 598, rac-(8S,11S,14S)-18-(3-aminopropoxy)-N-(cyanomethyl)-3-hydroxy-11-methyl-14-[methyl-[rac-(2S)-4-amino-2-[[4,6-dimethyl-2-(4-pentoxyphenyl)pyrimidine-5-carbonyl]amino]butanoyl]amino]-10,13-dioxo-9,12-diazatricyclo[13.3.1.12,6]icosa-1(18),2(20),3,5,15(19),16-hexaene-8-carboxamide] | 0.094 |  |
